# Data taken from patent US9403830B2, “Inhibitors of leukotriene production” (Boehringer Ingelheim International GmbH, priority 2012, dated 2016).
# Key:
# [1] = tested on: LTB4 synthesis in human whole blood; experiment: human whole blood (HWB) assay, inhibition of LTB4 production; type: cell-based; settings: heparinized human whole blood, calcimycin 20 μM stimulation, plasma LTB4
# How it was run: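 Plasma LTB4, quantified by HTRF immunoassay, is the read-out after calcimycin challenge (20 μM final, 30 min, 37 °C) of heparinized whole blood that had been pretreated with compound for 15 min at 37 °C; values given as IC50.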
# [2] = target: T1, human LTA4 hydrolase (Homo sapiens, UniProt P09960); experiment: LTA4H Enzyme assay (peptidase, Arg-AMC cleavage); type: biochemical; settings: LTA4H enzyme 1 nM, Arg-AMC substrate 50 μM, room temperature 1 h, fluorescence 380/460 nm
# T1 sequence (P09960 1-611): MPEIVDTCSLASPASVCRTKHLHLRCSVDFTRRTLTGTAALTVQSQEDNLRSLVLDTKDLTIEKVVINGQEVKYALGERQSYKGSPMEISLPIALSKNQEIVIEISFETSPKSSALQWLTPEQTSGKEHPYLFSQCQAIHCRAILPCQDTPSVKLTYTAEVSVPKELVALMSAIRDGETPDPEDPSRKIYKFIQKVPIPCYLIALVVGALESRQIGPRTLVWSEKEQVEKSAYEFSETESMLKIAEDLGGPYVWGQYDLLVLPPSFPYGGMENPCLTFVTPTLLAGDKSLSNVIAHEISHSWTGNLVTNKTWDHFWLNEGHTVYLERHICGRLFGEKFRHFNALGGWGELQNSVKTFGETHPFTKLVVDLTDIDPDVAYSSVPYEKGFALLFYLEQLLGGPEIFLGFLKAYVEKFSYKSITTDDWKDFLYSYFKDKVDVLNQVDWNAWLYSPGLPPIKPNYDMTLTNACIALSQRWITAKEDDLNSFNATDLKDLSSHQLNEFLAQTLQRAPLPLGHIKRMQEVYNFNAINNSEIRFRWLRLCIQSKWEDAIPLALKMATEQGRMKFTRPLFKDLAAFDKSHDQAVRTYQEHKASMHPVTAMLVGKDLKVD
# How it was run: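 Human LTA4H (1 nM final) incubated with compound and Arg-AMC (50 μM final) in 50 mM Tris-HCl pH 7.5, 100 mM KCl, 0.5% BSA, 1 h at room temperature. Product read as AMC fluorescence (ex 380/em 460 nm); IC50 reported.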
IC50 [1] [nM],IC50 [2] [nM],Structure (SMILES)
170,0.27,"CC(=O)N1CCN(Cc2cc3ccc(Oc4ccc(-c5ccn[nH]5)cn4)cc3[nH]2)CC1 [Example 221, 1-(4-{6-[5-(2H-Pyrazol-3-yl)-pyridin-2-yloxy]-1H-indol-2-ylmethyl}-piperazin-1-yl)-ethanone]"
230,0.73,"CC(=O)N1CCN(Cc2cc3cc(Oc4ccc(-c5ccn[nH]5)cn4)ccc3[nH]2)CC1 [Example 222, 1-(4-{5-[5-(2H-Pyrazol-3-yl)-pyridin-2-yloxy]-1H-indol-2-ylmethyl}-piperazin-1-yl)-ethanone]"
230,0.94,"CC(=O)N1CCN(Cc2cc3cc(Oc4ccc(-c5ccn[nH]5)cn4)ccc3cn2)CC1 [Example 223, 1-(4-{6-[5-(2H-Pyrazol-3-yl)-pyridin-2-yloxy]-isoquinolin-3-ylmethyl}-piperazin-1-yl)-ethanone]"
170,0.3,"CO[C@H]1CCN(Cc2nc3cc(Oc4ccc(-c5ccn[nH]5)cc4)ccc3[nH]2)C1 [Example 226, 2-((S)-3-Methoxy-pyrrolidin-1-ylmethyl)-5-[4-(2H-pyrazol-3-yl)-phenoxy]-1H-benzoimidazole]"
150,0.55,"CC(=O)N1CCN(Cc2ccc3cc(Oc4ccc(-c5cc[nH]n5)cn4)ccc3n2)CC1 [Example 231, 1-(4-{6-[5-(1H-Pyrazol-3-yl)-pyridin-2-yloxy]-quinolin-2-ylmethyl}-piperazin-1-yl)-ethanone]"
200,0.96,"COCC(=O)NC1CCN(Cc2ccc3cc(Oc4ccc(-c5cc[nH]n5)cn4)ccc3n2)CC1 [Example 236, 2-Methoxy-N-(1-{6-[5-(1H-pyrazol-3-yl)-pyridin-2-yloxy]-quinolin-2-ylmethyl}-piperidin-4-yl)-acetamide]"
340,0.94,"CC(=O)N1C[C@@H]2C[C@H]1CN2Cc1ccc2cc(Oc3ccc(-c4cc[nH]n4)cn3)ccc2n1 [Example 240, 1-((S)-5-{6-[5-(1H-Pyrazol-3-yl)-pyridin-2-yloxy]-quinolin-2-ylmethyl}-2,5-diaza-bicyclo[2.2.1]hept-2-yl)-ethanone]"
66,0.065,"c1cc(-c2ccc(Oc3ccc4nc(CN5CCCC5)ccc4c3)cc2)[nH]n1 [Example 243, 6-[4-(2H-Pyrazol-3-yl)-phenoxy]-2-pyrrolidin-1-ylmethyl-quinoline]"
120,0.048,"c1cc(-c2ccc(Oc3ccc4nc(CN5CCC5)ccc4c3)cc2)[nH]n1 [Example 244, 2-Azetidin-1-ylmethyl-6-[4-(2H-pyrazol-3-yl)-phenoxy]-quinoline]"

# Second part, the compound before the results:
Structure (SMILES),IC50 [1] [nM],IC50 [2] [nM]
"CC(=O)N1CCN(CCn2ccc3cc(Oc4ccc(-c5ccn[nH]5)cn4)ccc32)CC1 [Example 224, 1-[4-(2-{5-[5-(2H-Pyrazol-3-yl)-pyridin-2-yloxy]-indol-1-yl}-ethyl)-piperazin-1-yl]-ethanone]",540,2.3
"c1cc(-c2ccc(Oc3ccc4[nH]c(CN5CCC(CN6CCOCC6)CC5)nc4c3)cc2)[nH]n1 [Example 225, 2-(4-Morpholin-4-ylmethyl-piperidin-1-ylmethyl)-5-[4-(2H-pyrazol-3-yl)-phenoxy]-1H-benzoimidazole]",130,0.13
"c1cc(-c2ccc(Oc3ccc4[nH]c(CN5C[C@H]6CC[C@@H](C5)O6)nc4c3)cc2)[nH]n1 [Example 227, 3-{5-[4-(2H-Pyrazol-3-yl)-phenoxy]-1H-benzoimidazol-2-ylmethyl}-8-oxa-3-aza-bicyclo[3.2.1]octane]",170,0.054
"COC1CCN(Cc2nc3cc(Oc4ccc(-c5ccn[nH]5)cc4)ccc3[nH]2)CC1 [Example 228, 2-(4-Methoxy-piperidin-1-ylmethyl)-5-[4-(2H-pyrazol-3-yl)-phenoxy]-1H-benzoimidazole]",180,0.16
"CN(Cc1nc2cc(Oc3ccc(-c4ccn[nH]4)cc3)ccc2[nH]1)[C@H]1CCCC[C@@H]1O [Example 229, (1S,2S)-2-(Methyl-{5-[4-(2H-pyrazol-3-yl)-phenoxy]-1H-benzoimidazol-2-ylmethyl}-amino)-cyclohexanol]",190,0.22
"CN(Cc1nc2cc(Oc3ccc(-c4ccn[nH]4)cc3)ccc2[nH]1)C1CCOCC1 [Example 230, Methyl-{5-[4-(2H-pyrazol-3-yl)-phenoxy]-1H-benzoimidazol-2-ylmethyl}-(tetrahydro-pyran-4-yl)-amine]",200,0.19
"c1cc(-c2ccc(Oc3ccc4nc(OCCN5CCOCC5)sc4c3)cc2)n[nH]1 [Example 232, 2-(2-Morpholin-4-yl-ethoxy)-6-[4-(1H-pyrazol-3-yl)-phenoxy]-benzothiazole]",160,1.4
"CN(Cc1nc2cc(Oc3ccc(-c4ccn[nH]4)cc3)ccc2[nH]1)C(=O)C1CC1 [Example 233, Cyclopropanecarboxylic acid methyl-{5-[4-(2H-pyrazol-3-yl)-phenoxy]-1H-benzoimidazol-2-ylmethyl}-amide]",170,0.24
"CC1(C)CCN(Cc2nc3cc(Oc4ccc(-c5ccn[nH]5)cc4)ccc3[nH]2)C1=O [Example 234, 3,3-Dimethyl-1-{5-[4-(2H-pyrazol-3-yl)-phenoxy]-1H-benzoimidazol-2-ylmethyl}-pyrrolidin-2-one]",180,0.26
"CCN(Cc1nc2cc(Oc3ccc(-c4ccn[nH]4)cc3)ccc2[nH]1)C(=O)C1CC1 [Example 235, Cyclopropanecarboxylic acid ethyl-{5-[4-(2H-pyrazol-3-yl)-phenoxy}-1H-benzoimidazol-2-ylmethyl}-amide]",180,0.43
"CC(=O)NC1CCN(Cc2ccc3cc(Oc4ccc(-c5cc[nH]n5)cn4)ccc3n2)CC1 [Example 237, N-(1-{6-[5-(1H-Pyrazol-3-yl)-pyridin-2-yloxy]-quinolin-2-ylmethyl}-piperidin-4-yl)-acetamide]",210,0.84
"CC(=O)NC1CC2CCC(C1)N2Cc1ccc2cc(Oc3ccc(-c4cc[nH]n4)cn3)ccc2n1 (stereo not drawn) [Example 238, N-((endo)-8-{6-[5-(1H-Pyrazol-3-yl)-pyridin-2-yloxy]-quinolin-2-ylmethyl}-8-aza-bicyclo[3.2.1]oct-3-yl)-acetamide]",250,0.61
"CC(=O)N[C@@H]1C[C@H]2CC[C@@H](C1)N2Cc1ccc2cc(Oc3ccc(-c4cc[nH]n4)cn3)ccc2n1 [Example 239, N-((exo)-8-{6-[5-(1H-Pyrazol-3-yl)-pyridin-2-yloxy]-quinolin-2-ylmethyl}-8-aza-bicyclo[3.2.1]oct-3-yl)-acetamide]",260,0.43
"CC(=O)N1CCN(Cc2cnc3cc(Oc4ccc(-c5ccn[nH]5)cc4)ccc3n2)CC1 [Example 241, 1-(4-{6-[4-(2H-Pyrazol-3-yl)-phenoxy]-quinoxalin-2-ylmethyl}-piperazin-1-yl)-ethanone]",980,3.5
"O=S1(=O)CCN(Cc2ccc3cc(Oc4ccc(-c5cc[nH]n5)cn4)ccc3n2)CC1 [Example 242, 2-(1,1-Dioxo-1-λ-6-thiomorpholin-4-ylmethyl)-6-[5-(1H-pyrazol-3-yl)-pyridin-2-yloxy]-quinoline]",210,1.6
